From patent US8912120B2, “Herbicidal compositions comprising 4-amino-3-chloro-5-fluoro-6-(4-chloro-2-fluoro-3-methoxyphenyl) pyridine-2-carboxylic acid or a derivative thereof and synthetic auxin herbicides” (Dow AgroSciences, LLC., priority 2012, dated 2014)

What was measured:
SONAR = assay: Example V: postemergence herbicidal activity of mixtures in forage crops, SONAR; assay type: in vivo, Sonchus arvensis (field sowthistle); settings: alone, foliar, approximately 21 days
Method in brief: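 Plants grown from seed or root cuttings in MetroMix 306 (pH 6.0–6.8) for 14–60 days in greenhouse, ~14 h photoperiod, ~28/24 °C day/night. Foliar spray of two-way mixtures of the second herbicide or experimental compounds applied postemergence.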

PANMI = assay: Example III: postemergence foliar-applied herbicidal mixtures, row crop weeds, PANMI; assay type: in vivo, Panicum miliaceum (wild-proso millet); settings: 16 DAA
Method: The plants were grown for 7-31 days (d) in a greenhouse with an approximate 15 hour (h) photoperiod which was maintained at about 23-29° C. during the day and 22-28° C. during the night.

COc1c(Cl)ccc(-c2nc(C(=O)OCc3ccccc3)c(Cl)c(N)c2F)c1F [Compound A Benzyl Ester, benzyl ester of 4-amino-3-chloro-5-fluoro-6-(4-chloro-2-fluoro-3-methoxy-phenyl)pyridine-2-carboxylic acid]
SONAR Obs (observed value) (SONAR; 4.4 gae/ha): 65%
SONAR Obs (observed value) (SONAR; 8.8 gae/ha): 100%
SONAR Obs (observed value) (SONAR; 17.5 gae/ha): 95%
Visual Weed Control (%) Obs (PANMI; 3.75 gae/ha): 15%
Visual Weed Control (%) Obs (PANMI; 7.5 gae/ha): 50%
Visual Weed Control (%) Obs (PANMI; 15 gae/ha): 75%
